Measurements taken from paper PMC11120720, “Linking Variability in Phytochemical Composition with Safety Profile of Thymus carnosus Boiss. Extracts: Effect of Major Compounds and Evaluation of Markers of Oxidative Stress and Cell Death” (International Journal of Molecular Sciences, 2024).
Where two headings read alike, the source gives them in different places.

Assays:
Caco-2 cells [1] = experiment: Alamar Blue cell viability assay, Caco-2; type: cell-based, human; conditions: for IC50: Homo sapiens
Procedure: (§1) The safety profile of T. carnosus AD and HE extracts was evaluated in Caco-2 and HepG2 cells using an Alamar Blue® (Invitrogen; Alfagene, Lisboa, Portugal) assay. An initial screening was performed for all extracts at concentrations ranging between 100 and 1000 µg/mL. Due to the higher toxicity of the HE extracts, which was previously described for various extracts of Thymus species using the same extraction methods (e.g., T. mastichina and Thymus zygis), a different set of concentrations was used for the HE extracts (between 100 and 300 µg/mL for Caco-2 cells and 50 and 150 µg/mL for HepG2 cells). Figure 1 presents the data related to the cell viability assays in Caco-2 (panels A–E) and HepG2 cells (panels F–J) exposed to T. carnosus extracts, as indicated.
(§2) The safety profile of T. carnosus extracts was assessed in Caco-2 and HepG2 cells. Caco-2 (human colon adenocarcinoma cell line) were obtained from CLS (Cell Lines Service, Eppelheim, Germany), and HepG2 (human hepatocellular carcinoma cell line) were obtained from ATCC (American Type Culture Collection, Manassas, VA, USA).
(§3) Cell culture maintenance, handling, subculturing, and seeding were performed as described by Silva et al., 2020 [5], and cell viability was assessed using an Alamar Blue® assay, as described by Andreani et al., 2014 [64]. Concentrations ranged between 100 and 1000 µg/mL for AD extracts in both cell lines and 100 to 300 µg/mL or 50 to 150 µg/mL for HE extracts in Caco-2 and HepG2 cells, respectively. The effect of individual compounds on cell viability was assessed for concentrations ranging from 50 to 300 µM. All test solutions were prepared by diluting the samples in FBS-free culture media from the stock solutions described in Section 3.2, just prior to being used.
(§4) The results are presented as mean ± SD of at least three independent assays. The calculation of IC50 values was performed as described by Silva et al., 2020 [5]. Data analysis, graphical design, and statistical analysis were performed using Microsoft Office Excel (Professional Plus 2019; Microsoft Corporation, Washington, DC, USA) and GraphPad Prism (Version 8; GraphPad Software Inc., San Diego, CA, USA). Flow cytometry data analysis was performed using BD Accuri™ C6 Software, version 1.0.264.21 (Becton Dickinson, San Diego, CA, USA).

HepG2 cells [2] = experiment: Alamar Blue cell viability assay, HepG2; type: cell-based, human; conditions: for IC50: Homo sapiens
Procedure: as §1, §2, §3, §4

HepG2 cells [3] = experiment: Intracellular ROS (DCFDA, flow cytometry), HepG2; type: cell-based, human; conditions: compound 50 µM, 24 h
Procedure: (§5) The cells were then equally divided for each assay.
(§6) Intracellular ROS level assessment was performed as described by Silva et al., 2022 [65], using dichlorodihydrofluorescein diacetate (DCFDA). Cells obtained in the previous step were centrifuged, the supernatant discarded, and 200 µL of DCFDA (10 µM in FBS-free DMEM) was added. Cells were incubated for 45 min (37 °C, in the dark), washed to remove excess probe, and resuspended in PBS for data acquisition.

Caco-2 cells [4] = experiment: Cell cycle arrest (PI, flow cytometry), Caco-2; type: cell-based; conditions: compound 50 µM, 24 h
Procedure: as §5
(§7) Cell cycle arrest assessment was performed as described in [1]. Cells were processed as described above until cell detachment and centrifuged, after which the second washing step was performed with ice-cold PBS (0 °C). After centrifugation, the supernatant was discarded, and cells were fixed with 500 µL of ethanol:PBS solution (70:30, % v/v, previously cooled at −20 °C) for at least 4 h at −20 °C. After fixation, two washing cycles were performed: the first with ice-cold PBS (0 °C) and the second with room-temperature PBS, followed by the addition of 200 µL of a PBS solution containing PI (50 µg/mL), RNAse A (50 µg/mL), and Triton X-100 (0.1%). Cells were incubated for 30 min at 37 °C, and then cells were washed once with PBS to remove the staining solution. After resuspension in PBS, the data were acquired.

HepG2 cells [5] = experiment: Cell cycle arrest (PI, flow cytometry), HepG2; type: cell-based, human; conditions: compound 50 µM, 24 h
Procedure: as §5, §7

Caco-2 cells [6] = experiment: Annexin V-FITC/PI apoptosis/necrosis, Caco-2; type: cell-based; conditions: compound 50 µM, 24 h
Procedure: as §5
(§8) For the assessment of apoptotic/necrotic cell death, an Annexin V-FITC (Thermo Fisher Scientific, Waltham, MA, USA) and propidium iodide (PI; Merck, Darmstadt, Germany) double-staining assay was used to evaluate the apoptotic/necrotic cell death induced by T. carnosus extracts and by individual phytochemicals, as described previously. Briefly, after detachment and washing, the supernatant was discarded, and 200 µL of Annexin V-FITC (1:200 dilution in Annexin-binding buffer [10 mM HEPES sodium salt, 150 mM NaCl, 5 mM KCl, 5 mM MgCl2, and 1.8 mM CaCl2; pH = 7.4]) was added. Cells were incubated for 20 min (room temperature, in the dark). After incubation, 5 µL of propidium iodide (PI; 50 µg/mL) was added, the cells were incubated for 5 min on ice (in the dark), and the data were acquired.

HepG2 cells [7] = experiment: Annexin V-FITC/PI apoptosis/necrosis, HepG2; type: cell-based, human; conditions: compound 50 µM, 24 h
Procedure: as §5, §8

[8] = system: nasopharyngeal carcinoma cells NPC-039; set-up: method as in PMID 34165247; conditions: cited from earlier work
[9] = system: nasopharyngeal carcinoma cells NPC-BM; set-up: method as in PMID 34165247; conditions: cited from earlier work
Caco-2 cells [10] = conditions: cited from earlier work
HepG2 cells [11] = conditions: cited from earlier work
[12] = Alamar Blue cell viability assay, Caco-2; type: cell-based, human; conditions: human, Caco-2; 48 h; concentration not given; read-out: cell viability, Caco-2 (% of control)
Procedure: as §1, §2, §3, §4

[13] = Alamar Blue cell viability assay, HepG2; type: cell-based, human; conditions: human, HepG2 cells, concentration not given
Procedure: as §1, §2, §3, §4

Caco-2 cells [14] = experiment: Intracellular ROS (DCFDA, flow cytometry), Caco-2; type: cell-based; conditions: compound 50 µM, 24 h
Procedure: as §5, §6

HepG2 cells [15] = experiment: Mitochondrial membrane potential (JC-1, flow cytometry), HepG2; type: cell-based, human
Procedure: (§9) Flow cytometry was used to analyze the effect of T. carnosus extracts on intracellular ROS, modulation of mitochondrial membrane potential (MMP), cell cycle arrest, and apoptotic/necrotic cell death induction.
(§10) Both one- and two-color assays were performed using a BD Accuri™ C6 cytometer (Becton Dickinson, Franklin Lakes, NJ, USA), and 10,000 gated events were collected from each sample [1]. For flow cytometry assays, cells were handled as described previously but seeded at a density 5 × 10^4 cells/mL (750 μL/well) in 12-well plates. Caco-2 and HepG2 cells were incubated for 24 h with the extracts (100 µg/mL) or individual phytochemicals (50 µM) diluted in FBS-free culture media h. After incubation, test solutions were removed; the cells were washed with PBS and detached from the plates using trypsin-EDTA. Once transferred to centrifuge tubes, the cells were centrifuged (bench micro-centrifuge; 3000 rpm; 3 min), the supernatant was discarded, and a new wash cycle was performed. The cells were then equally divided for each assay. A negative control was used in all assays consisting of nonexposed cells incubated only with culture media.
(§11) Mitochondrial membrane potential (MMP) was evaluated using 5,5″,6,6″-tetrachloro-1,1″,3,3″-tetraethylbenzimidazolylcarbocyanineiodide (JC-1). Cells were processed as described for DCFDA but incubated with 200 µL of JC-1 (2 µM, in FBS-free DMEM) for 20 min (37 °C, in the dark).

[16] = system: human lung cancer (A549) cells; conditions: cited from earlier work
[17] = system: normal and tumoral human nasopharyngeal cells; set-up: method as in PMID 33277860; conditions: 24 h; cited from earlier work
Caco-2 cells [18] = conditions: positive control, 5 µM
Procedure: as §9, §10, §11

[19] = system: hepatocarcinoma cells (HuH7); set-up: method as in PMID 20415421; conditions: 20-80 µM; cited from earlier work
[20] = set-up: method as in PMID 31344882, PMID 26042707; conditions: cited from earlier work

O=c1cc(-c2ccc(O)c(O)c2)oc2cc(O[C@@H]3O[C@H](CO)[C@@H](O)[C@H](O)[C@H]3O)cc(O)c12 [Luteolin-7-O-glucoside, luteolin-7-O-glucoside]
concentrations reducing Caco-2 cell viability (p < 0.05) (Caco-2 cells [1]; Caco-2): ≥ 75 µM
reduction in HepG2 cell viability (HepG2 cells [2]; 300 µM, 48 h): ~ 30%
concentrations giving significant effect on HepG2 cell viability (HepG2 cells [2]; 48 h exposure): ≥ 100 µM
change in intracellular ROS, HepG2 (HepG2 cells [3]): significant (p < 0.05) increase in intracellular HepG2 ROS levels
cell cycle effect, Caco-2 (Caco-2 cells [4]): cell cycle arrest in G0/G1
cell cycle effect, HepG2 (HepG2 cells [5]): induced cell cycle arrest in both cell lines but in different phases
cell death induction, Caco-2 (Caco-2 cells [6]): did not induce cell death
cell death induction, HepG2 (HepG2 cells [7]): did not induce cell death
MMP modulation, NPC-039 ([8]; 20, 40 and 80 µM): MMP depolarization
cell cycle effect, NPC-039 [8]: cell cycle arrest in the S and G2/M phases
MMP modulation, NPC-BM ([9]; 20, 40 and 80 µM): MMP depolarization
cell cycle effect, NPC-BM [9]: cell cycle arrest in the S and G2/M phases
IC50 (Caco-2 cells [10]; read-out: concentration reducing Caco-2 cell viability to 50% of control, 48 h): ~55 µM
IC50 (HepG2 cells [11]; read-out: concentration reducing HepG2 cells' viability to ~50%): 44.6 µM

O=C(O)[C@H]1O[C@@H](Oc2c(-c3ccc(O)c(O)c3)oc3cc(O)cc(O)c3c2=O)[C@H](O)[C@@H](O)[C@@H]1O [quercetin-3-O-glucuronide]
cytotoxicity in Caco-2 cells relative to quercetin aglycone (Caco-2 cells [10]): lower cytotoxicity in Caco-2 cells than aglycone

O=c1c(O[C@@H]2O[C@H](CO)[C@@H](O)[C@H](O)[C@H]2O)c(-c2ccc(O)c(O)c2)oc2cc(O)cc(O)c12 [quercetin-3-O-glucoside]
cytotoxicity in Caco-2 cells relative to quercetin aglycone (Caco-2 cells [10]): lower cytotoxicity in Caco-2 cells than aglycone

COc1cc(/C=C/C(=O)CC(=O)/C=C/c2ccc(O)c(OC)c2)ccc1O [curcumin]
MMP modulation, HepG2 (HepG2 cells [11]; 27-108 µM): mitochondrial membrane hyperpolarization in HepG2 cells, followed by depolarization

O=C1C[C@@H](c2ccc(O)c(O)c2)Oc2cc(O)cc(O)c21 [Eriodictyol, eriodictyol]
viability at 48 h [12]: ~19%
reduction of Caco-2 cell viability (Caco-2 cells [1]; 48 h, concentration not given): ~ 81%
IC50 (Caco-2 cells [1]; Caco-2, 24 h, read-out: IC50 (µM) - Caco-2 cells: 24 h): 245 ± 13.7 µM
IC50 (Caco-2 cells [1]; Caco-2, 48 h, read-out: IC50 (µM) - Caco-2 cells: 48 h): 82.5 µM
viability at 24 h ([13]; 24 h): 56.9%
viability at 48 h ([13]; 48 h): 43.2%
IC50 (HepG2 cells [2]; HepG2, 24 h, read-out: IC50 (µM) - HepG2 cells: 24 h): > 300 µM
IC50 (HepG2 cells [2]; HepG2, 48 h, read-out: IC50 (µM) - HepG2 cells: 48 h): 231 ± 23.2 µM
change in intracellular ROS, Caco-2 (Caco-2 cells [14]): neither RA nor eriodictyol induced ROS increases
change in intracellular ROS, HepG2 (HepG2 cells [3]): significant (p < 0.05) increase in intracellular HepG2 ROS levels
MMP modulation, HepG2 (HepG2 cells [15]; compound 50 µM, 24 h): hyperpolarization of the mitochondrial membrane
cell death induction, Caco-2 (Caco-2 cells [6]): induced apoptosis and necrosis
cell death induction, HepG2 (HepG2 cells [7]): induced apoptosis and necrosis
cell cycle effect, A549 [16]: cell cycle arrest in the G2/M phase
concentrations reducing the MMP in A549 cells [16]: ≥ 25 µM
concentrations inducing cytotoxicity, nasopharyngeal cells [17]: ≥ 5 µM

N#CC(C#N)=NNc1ccc(OC(F)(F)F)cc1 [FCCP, carbonyl cyanide p-trifluoromethoxyphenylhydrazone]
JC-1 FL2/FL1 ratio normalized by negative control, Caco-2 (Caco-2 cells [18]): 0.06 ± 0.01
reduction in MMP, Caco-2 (Caco-2 cells [18]): ~ 94%
JC-1 FL2/FL1 ratio normalized by negative control, HepG2 (HepG2 cells [15]; positive control, 5 µM): 0.10 ± 0.01
reduction in MMP, HepG2 (HepG2 cells [15]; positive control, 5 µM): ~ 90%

CC1(C)CC[C@]2(C(=O)O)CC[C@]3(C)C(=CC[C@@H]4[C@@]5(C)CC[C@H](O)C(C)(C)[C@@H]5CC[C@]43C)[C@@H]2C1 [Oleanolic acid, oleanolic acid]
IC50 (Caco-2 cells [1]; Caco-2, 24 h exposure, read-out: IC50 (µM) - Caco-2 cells: 24 h): 78.5 ± 3.57 µM
IC50 (Caco-2 cells [1]; Caco-2, 48 h exposure, read-out: IC50 (µM) - Caco-2 cells: 48 h): 45.9 ± 2.47 µM
IC50 (HepG2 cells [2]; HepG2, 24 h exposure, read-out: IC50 (µM) - HepG2 cells: 24 h): 150 ± 7.66 µM
change in intracellular ROS, Caco-2 (Caco-2 cells [14]): increase in ROS
change in intracellular ROS, HepG2 (HepG2 cells [3]): significant (p < 0.05) increase in intracellular HepG2 ROS levels
cell cycle effect, Caco-2 (Caco-2 cells [4]): cell cycle arrest in G0/G1
percentage of cells in late apoptosis, Caco-2 (Caco-2 cells [6]): ~ 29%
percentage of cells in necrosis, Caco-2 (Caco-2 cells [6]): ~ 50%
cell death induction, HepG2 (HepG2 cells [7]): slight reduction in the percentage of healthy cells
MMP modulation, HuH7 [19]: reduce MMP
lipophilicity [20]: high lipophilicity
water solubility [20]: poor water solubility
concentrations reducing Caco-2 cell viability (Caco-2 cells [10]; 24 h): ≥ 5 µM
concentrations reducing HepG2 cell viability (HepG2 cells [11]; 48 h): ≥ 2 µM
IC50 (HepG2 cells [11]; read-out: IC50, HepG2 cells, 72 h): > 100 µM
